3 molecules from ChEMBL document CHEMBL1240398, “Surveillance and correlation of antibiotic prescription and resistance of Gram-negative bacteria in Singaporean hospitals” (2010) can be followed below.

Structures are written as SMILES.

Common to all, as to type: functional
Assay [1] deals with Escherichia coli. In words: Antimicrobial activity against Escherichia coli clinical isolate assessed as resistance isolates by disk diffusion method.
In assay [2] the test system is Escherichia coli. In words: Antimicrobial activity against Escherichia coli isolate obtained from patient's blood assessed as resistance isolates by disk diffusion method.
In assay [3] the test system is Klebsiella pneumoniae. In words: Antimicrobial activity against Klebsiella pneumoniae clinical isolate assessed as resistance isolates by disk diffusion method.
The test system of assay [4] is Klebsiella pneumoniae. Description: Antimicrobial activity against Klebsiella pneumoniae isolate obtained from patient's blood assessed as resistance isolates by disk diffusion method. (Agar diffusion results depend on both activity and mobility in agar.)
The test system of assay [5] is Acinetobacter sp. In words: Antimicrobial activity against Acinetobacter sp. clinical isolate assessed as resistance isolates by disk diffusion method.
Assay [6] deals with Acinetobacter sp. In words: Antimicrobial activity against Acinetobacter sp. isolate obtained from patient's blood assessed as resistance isolates by disk diffusion method.
Assay [7] concerns Pseudomonas aeruginosa. In words: Antimicrobial activity against Pseudomonas aeruginosa clinical isolate assessed as resistance isolates by disk diffusion method.
The subject of assay [8] is Pseudomonas aeruginosa. Description: Antimicrobial activity against Pseudomonas aeruginosa isolate obtained from patient's blood assessed as resistance isolates by disk diffusion method.

For `CO/N=C(\C(=O)N[C@@H]1C(=O)N2C(C(=O)O)=C(CSc3nc(=O)c(O)nn3C)CS[C@H]12)c1csc(N)n1` [CEFTRIAXONE], the Activity with Escherichia coli [1] is reported as 20%; in the assay with Escherichia coli [2], 21.7%; with Klebsiella pneumoniae [3], 32.3%; in the assay on Klebsiella pneumoniae [4], 27.4%.
`O=C(O)c1cn(C2CC2)c2cc(N3CCNCC3)c(F)cc2c1=O` [CIPROFLOXACIN]: the Activity with Escherichia coli [2] is reported as 31%; in the assay on Klebsiella pneumoniae [4], 24%.
For `C[C@@H](O)[C@H]1C(=O)N2C(C(=O)O)=C(SCCNC=N)C[C@H]12` [IMIPENEM ANHYDROUS], the Activity in the assay with Acinetobacter sp. [5] was found to be 46.2%; with Acinetobacter sp. [6], 50%; with Pseudomonas aeruginosa [7], 7.5%; in the assay on Pseudomonas aeruginosa [8], 12.8%.
